According to ChEMBL document CHEMBL1128862, “Tricyclic cephems as inhibitors of human leukocyte elastase. thieno[3,4-c]cepham sulfones and pyrrolo[3,4-c]cepham sulfones” (Bioorg Med Chem Lett, 1995):

How the values were obtained:
[1] = Hydrolytic stability at 37 degrees Centigrade in 50 mM phosphate buffer (2 % v/v MeCN as solubilising vehicle) at pH 7.4; format: physicochemical
[2] = target: T1, Neutrophil elastase (Homo sapiens) (UniProt P08246); assay: Inhibitory activity against human leukocyte elastase (HLE) expressed as second order inhibition rate constant
T1 sequence (whole entry): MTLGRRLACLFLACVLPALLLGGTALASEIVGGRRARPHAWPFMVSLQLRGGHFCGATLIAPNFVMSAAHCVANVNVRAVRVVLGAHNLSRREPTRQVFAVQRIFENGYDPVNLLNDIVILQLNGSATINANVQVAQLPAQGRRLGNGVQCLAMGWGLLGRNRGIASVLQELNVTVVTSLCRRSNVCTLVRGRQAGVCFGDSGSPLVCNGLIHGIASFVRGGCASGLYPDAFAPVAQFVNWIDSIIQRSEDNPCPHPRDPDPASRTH

[3] = Hydrolytic stability at 37 degrees Celsius in 50 mM phosphate buffer (20 % v/v MeCN as solubilising vehicle) at pH 7.4; format: physicochemical

CO[C@H]1C(=O)N2c3c(c[nH]c3C(C)(C)C)CS(=O)(=O)[C@H]12
half-life [1]: 21.2 days | k on [2]: 1300 M⁻¹ s⁻¹

CO[C@H]1C(=O)N2c3c(csc3C(C)(C)C)CS(=O)(=O)[C@H]12
half-life [1]: 9.17 days | k on [2]: 80 M⁻¹ s⁻¹

CO[C@H]1C(=O)N2c3c(cn(-c4ccc([N+](=O)[O-])cc4)c3-c3ccccc3)CS(=O)(=O)[C@H]12
half-life [3]: > 125 days | k on [2]: 11000 M⁻¹ s⁻¹

CO[C@H]1C(=O)N2c3c(cn(C(=O)C(C)(C)C)c3-c3ccccc3)CS(=O)(=O)[C@H]12
half-life [1]: 33.3 days | k on [2]: 2100 M⁻¹ s⁻¹

CO[C@H]1C(=O)N2c3c(c[nH]c3-c3ccccc3)CS(=O)(=O)[C@H]12
half-life [1]: 23.8 days | k on [2]: 2500 M⁻¹ s⁻¹

CO[C@H]1C(=O)N2c3c(csc3-c3ccccc3)CS(=O)(=O)[C@H]12
half-life [1]: 1.42 days | k on [2]: 270 M⁻¹ s⁻¹
